From PMC3014376 (Vaccine, 2010)
Residues, ends and D or L forms follow the SMILES beside them.

Legend:
Experiment in all cases: MHC-peptide binding assay
[1] = molecular target: HLA-A*0206 (Homo sapiens, UniProt P04439, D140Y/D185E/D98H/E176V/E277Q/F33Y/G131W/G231S/I119V/I121R/I166T/I218V/L300P/L318F/N151K/N90K/P208A/P217A/Q86G/Q94H/R138H/R169H/T345S)
[2] = molecular target: HLA-A*6802 (Homo sapiens, UniProt P04439, A269V/D140Y/D185E/E176V/E277Q/E87N/F33Y/G231S/I121R/I166T/I218V/L180W/L300P/L318F/N151K/P208A/P217A/Q86R/R138H/R169H/S129P/T345S/V36M)
[3] = molecular target: HLA-A*0202 (Homo sapiens, UniProt P04439, D140Y/D185E/D98H/E176V/E277Q/G131W/G231S/I119L/I121R/I166T/I218V/L180W/L300P/L318F/N151K/N90K/P208A/P217A/Q67R/Q86G/Q94H/R138H/R169H/T345S)

SMILES: CC[C@H](C)[C@H](NC(=O)[C@@H](NC(=O)[C@H](CC(C)C)NC(=O)[C@H](CC(C)C)NC(=O)[C@H](CO)NC(=O)[C@H](CC(C)C)NC(=O)[C@H](CO)NC(=O)[C@H](CC(C)C)NC(=O)[C@@H](N)Cc1ccccc1)C(C)C)C(=O)O [SAG2C38–46] (H-FLSLSLLVI-OH)
- IC50 [1]: > 10 µM
- IC50 [2]: 9.83 µM

SMILES: CC[C@H](C)[C@H](NC(=O)[C@H](CCSC)NC(=O)[C@@H](N)Cc1ccccc1)C(=O)N[C@@H](C)C(=O)N[C@@H](Cc1ccccc1)C(=O)N[C@H](C(=O)N[C@@H](CO)C(=O)N[C@@H](CS)C(=O)N[C@@H](Cc1ccccc1)C(=O)N[C@@H](C)C(=O)O)[C@@H](C)CC [SAG2D180–189] (H-FMIAFISCFA-OH)
- IC50 [1]: 0.112 µM
- IC50 [2]: 0.397 µM
- IC50 [3]: 0.056 µM

SMILES: CC[C@H](C)[C@H](NC(=O)[C@@H](NC(=O)[C@@H](N)Cc1ccccc1)C(C)C)C(=O)N[C@@H](Cc1ccccc1)C(=O)N[C@@H](C)C(=O)N[C@@H](CS)C(=O)N[C@@H](CC(N)=O)C(=O)N[C@@H](Cc1ccccc1)C(=O)N[C@H](C(=O)O)C(C)C [SAG2X44–52] (H-FVIFACNFV-OH)
- IC50 [1]: 0.0056 µM
- IC50 [2]: 0.0012 µM

SMILES: CC[C@H](C)[C@H](NC(=O)[C@H](CO)NC(=O)[C@@H](NC(=O)[C@@H](NC(=O)[C@H](CCSC)NC(=O)[C@@H](N)Cc1ccccc1)[C@@H](C)CC)C(C)C)C(=O)N[C@@H](CO)C(=O)N[C@@H](CC(C)C)C(=O)N[C@H](C(=O)O)C(C)C [SAG2X351–359] (H-FMIVSISLV-OH)
- IC50 [1]: 0.0062 µM
- IC50 [2]: 0.048 µM
- IC50 [3]: 0.0018 µM

SMILES: CC[C@H](C)[C@H](NC(=O)[C@H](Cc1ccc(O)cc1)NC(=O)[C@H](CC(=O)O)NC(=O)[C@@H](NC(=O)[C@H](CC(C)C)NC(=O)[C@@H](N)Cc1ccccc1)[C@@H](C)O)C(=O)N1CCC[C@H]1C(=O)NCC(=O)N[C@@H](C)C(=O)O [SAG3_136–144] (H-FLTDYIPGA-OH)
- IC50 [1]: 0.0012 µM
- IC50 [2]: 2.1 µM
- IC50 [3]: 0.0071 µM

SMILES: CC(C)C[C@H](NC(=O)CNC(=O)[C@H](CC(C)C)NC(=O)[C@H](CC(C)C)NC(=O)[C@@H](N)Cc1ccccc1)C(=O)N[C@@H](CC(C)C)C(=O)N[C@H](C(=O)N[C@@H](Cc1c[nH]cn1)C(=O)N[C@H](C(=O)O)C(C)C)C(C)C [SAG3_375–383] (H-FLLGLLVHV-OH)
- IC50 [1]: 0.0099 µM
- IC50 [2]: 0.173 µM
- IC50 [3]: 0.037 µM

SMILES: CC[C@H](C)[C@H](N)C(=O)N[C@H](C(=O)N[C@@H](CCSC)C(=O)NCC(=O)N[C@@H](CO)C(=O)N[C@@H](CC(C)C)C(=O)N[C@@H](Cc1ccccc1)C(=O)N[C@@H](Cc1ccccc1)C(=O)N[C@H](C(=O)O)C(C)C)[C@@H](C)O [SPA12–20] (H-ITMGSLFFV-OH)
- IC50 [1]: 0.00026 µM
- IC50 [2]: 0.0011 µM
- IC50 [3]: 0.00064 µM

SMILES: CC(C)C[C@H](NC(=O)CN)C(=O)N[C@@H](C)C(=O)N[C@@H](C)C(=O)N[C@@H](C)C(=O)N[C@H](C(=O)N[C@H](C(=O)N[C@@H](C)C(=O)N[C@H](C(=O)O)C(C)C)C(C)C)C(C)C [SPA82–90] (H-GLAAAVVAV-OH)
- IC50 [1]: 0.055 µM
- IC50 [2]: 0.263 µM
